This is an account of results in US20160145202A1 (priority 2013, published 2016).

The test relates to Septoria tritici. The experiment in a line: Glass house trial: control of leaf blotch on wheat caused by Septoria tritici (SEPTTR_P1). The following applies: 300 ppm, protective P1, wheat seedlings sprayed to run-off, visually assessed after 4 weeks. The test is classed as in vivo. The protocol:
The spray solutions were prepared in several steps:
The stock solution was prepared as follows: 0.84 ml of a 1:1 mixture of cyclohexanone and dimethylsulfoxide was added to 16.8 mg of active ingredient. Next, 27.16 ml of a mixture of water, acetone (10%), the emulsifier Wettol (0.1%) and the wetting agent Silwet (0.05%) was added.
This stock solution was then further diluted with the described solvent-emulsifier-water mixture to the desired concentrations. Two different compound applications were used: “protective, P1” and “curative, K1”, where the first means that the compound solution is applied a day before the fungus while the latter represents the opposite ordering.
Control of Leaf Blotch on Wheat Caused by Septoria tritici (SEPTTR_P1)
Leaves of pot-grown wheat seedling were sprayed to run-off with an aqueous suspension of F-1 (300 ppm), prepared as described. The plants were allowed to air-dry. At the following day the plants were inoculated with an aqueous spore suspension of Septoria tritici. Then the trial plants were immediately transferred to a humid chamber at 18-22° C. and a relative humidity close to 100%. After 4 days the plants were transferred to a chamber with 18-22° C. and a relative humidity close to 70%.

Regarding `CNC(=O)OCc1cc(/C(C)=N/OCc2cccc(C)n2)ccc1Cl` [F-1, [2-chloro-5-[(E)-C-methyl-N-[(6-methyl-2-pyridyl)methoxy]carbonimidoyl]phenyl]methyl N-methylcarbamate], the “extent of fungal attack on the leaves (infection compared to untreated plants)” value was not above 30%.
